Patent publication US10028931B2, “Synergistic compositions for treating microbial infections” (UNIVERSITY OF ROCHESTER, priority 2014, dated 2018)
In brackets after ≈: the same amount, converted by molar mass. Several values for one entry are separate records, joined by “and”; a condition that tells them apart may be missing. Identical values can stand only once. Like-named read-outs stand apart in the source and are kept apart here.

What was measured:
[1] = test system: Staphylococcus aureus strain UAMS-1; assay: Antimicrobial susceptibility testing (MIC, broth microdilution); assay type: cell-based; conditions: S. aureus UAMS-1, Mueller Hinton broth, 37° C.
Method in brief: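 About 1×10^5 CFU of S. aureus UAMS-1 were exposed to two-fold dilutions (0–256 μg mL−1) in Mueller Hinton broth for 18 h at 37 °C. MIC was the lowest concentration with no visible growth. MBC was determined by counting cells in wells at and above the MIC.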

[2] = biological target: T1, S. aureus RNase P (RnpA+rnpB) (Staphylococcus aureus, UniProt P0A0H5); assay: RNase P activity assay (precursor tRNA processing); assay type: biochemical; conditions: for IC50: ptRNATyr processing, gel densitometry, read-out: RNase P IC50
T1 sequence (P0A0H5 1-117): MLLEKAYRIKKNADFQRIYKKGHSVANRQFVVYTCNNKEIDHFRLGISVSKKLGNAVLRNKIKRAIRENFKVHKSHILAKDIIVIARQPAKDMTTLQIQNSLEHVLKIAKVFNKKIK
Method in brief: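 Reconstituted RnpA+rnpB (1.25 pmol) processed 10 pmol heat-denatured ptRNATyr for 15 min at 37 °C in low-salt (5 mM MgCl2) or high-salt (100 mM MgCl2, 800 mM NH4Cl) Tris pH 8.0 buffer with inhibitor or DMSO. Mature tRNATyr quantified by urea-PAGE densitometry, expressed as % of DMSO control.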

RnpA = biological target: T2, RnpA (Staphylococcus aureus, UniProt P0A0H5); assay: RnpA mRNA degradation activity assay; assay type: biochemical
T2 sequence (P0A0H5 1-117): T1 sequence (P0A0H5 1-117)
Method in brief: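 Total S. aureus RNA (1 μg) or in vitro transcribed spa mRNA (1 pmol) was incubated with 20 pmol RnpA plus compound for 15–30 min at 37° C in 50 mM Tris-HCl pH 8.0, 2 mM NaCl, 2 mM MgCl2. RNA was resolved on denaturing formaldehyde-agarose gels and quantified by densitometry. Percent inhibition is relative to RNA-alone and RnpA+DMSO controls.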

Staphylococcus aureus = assay: Antimicrobial activity of ointment / petroleum jelly suspensions (FIG. 2, Panel A); assay type: cell-based; conditions: subinhibitory concentration in petroleum jelly, S. aureus
From the text: The addition of an RnpA inhibitor, such as RNPA2000, to mupirocin ointment (Teva Pharmaceuticals USA (North Wales, Pa.)) improved the antimicrobial efficacy of the ointment and is also effective against mupirocin resistant S. aureus. […] See FIG. 2, Panel A, upper left picture. […] See FIG. 2, Panel A, upper right picture.

[3] = test system: RNase P-mediated tRNA processing; assay: Precursor tRNA processing within bacterial cells (FIG. 1, Panel B); assay type: cell-based
From the text: Mupirocin is a generically available antibiotic that inhibits isoleucyl tRNA synthetase in bacterial cells. The enzyme charges tRNA molecules, allowing them to participate in protein translation. RnpA is an enzyme, which together with the ribozyme, rnpB, forms RNase P riboprotein complex that prepares precursor tRNA molecules for charging (it works upstream of tRNA synthetase in the tRNA processing pathway).

S. aureus strain UAMS-1 = assay: Fractional Inhibitory Concentration testing with mupirocin; assay type: cell-based; conditions: combined with mupirocin, S. aureus UAMS-1, Mueller Hinton broth, 18 hours; synergistic FIC≤0.5
Experimental: The RNase P inhibitors described herein were tested for Fractional Inhibitory Concentration (FIC) in the presence of mupirocin. FIC testing was performed to determine the combined effects of mupirocin and the RnpA inhibitors as described herein. Individual wells of a 96-well microtiter plate were inoculated with 1×10^5 CFU of S. aureus strain UAMS-1 in a Mueller Hinton broth. Each row of the plate contained increasing concentrations of RNPA1000 or RNPA2000 (two-fold increments; 0, 0.004, 0.008, 0.016, 0.03, 0.06, 0.125, 0.25, 0.5, 1, 2, or 4×MIC), whereas each column contained increasing concentrations of the indicated antibiotic (two-fold increments; 0, 0.06, 0.125, 0.25, 0.5, 1, 2, or 4×MIC). Plates were incubated for 18 hours at 37° C., and growth was detected by the unaided eye. The FIC was determined using the following formula: (MIC of Drug A in Combination/MIC of Drug A Alone)+(MIC of Drug B in Combination/MIC of Drug B Alone)=FIC. A synergistic interaction was defined as an FIC value≤0.5, no interaction as an FIC of 0.5-4, or an antagonistic interaction FIC>4.

[4] = Staphylococcus aureus, UAMS1, 18 h, read-out: MIC
[5] = RnpA mRNA degradation, gel densitometry, read-out: RnpA IC50

Row | Compound | MIC [1, 4] [µg/mL] | IC50 [2] | IC50 (RnpA; [5]) | MIC ([1]; 18 hours, listed as MC-220000) [µg/mL] | precursor tRNA processing in vitro ([2]; FIG. 1, Panel A) | antimicrobial properties in petroleum jelly (Staphylococcus aureus) | precursor tRNA processing within bacterial cells [3] | FIC with Mupirocin (S. aureus strain UAMS-1) | IC50 (RnpA) [µM]
1 | CC(C)c1ccc(OCC(=O)NNC(=S)NC(=O)c2ccco2)cc1 [RNPA2000] | 16 (≈ 44.3 µM) | 140 µM and 300 µM | 275 µM and 180 µM | 8 (≈ 22.1 µM) | inhibits precursor tRNA processing | no antimicrobial properties | inhibits precursor tRNA processing | 0.44 | 
2 | CC(C)c1ccc(OCC(=O)NNC(=S)NC(=O)c2c[nH]c3ccccc23)cc1 [MC-190055] | 32 (≈ 78 µM) | 90 µM | 40 µM |  |  |  |  | 0.56 | 
3 | CC(C)c1ccc(OCC(=O)NNC(=S)NC(=O)c2cc3ccccc3[nH]2)cc1 [MC-190054] | 16 (≈ 39 µM) | < 0.5 µM | 50 µM |  |  |  |  | 0.49 | 
4 | CC(C)c1ccc(OCC(=O)NNC(=S)NC(=O)c2ccc(Br)o2)cc1 [MC-190046] | 32 (≈ 72.7 µM) | 140 µM | 30 µM |  |  |  |  | 0.3125 | 
5 | CC(C)c1ccc(OCC(=O)NNC(=S)NC(=O)c2ccsc2)cc1 [MC-190030] | 64 (≈ 170 µM) | 395 µM |  |  |  |  |  | 0.375 | > 500
6 | CC(C)c1ccc(OCC(=O)NNC(=S)NC(=O)c2cc3ccccc3s2)cc1 [MC-220001] | > 256 | 100 µM | 50 µM |  |  |  |  | 0.56 | 
7 | Cc1ccoc1C(=O)NNC(=O)COc1ccc(C(C)C)cc1 [MC-190040] | > 256 | 230 µM | 480 µM |  |  |  |  | 0.625 | 
8 | CC(C)c1ccc(OCC(=O)NNC(=S)NC(=O)c2cc3ccc(Cl)cc3[nH]2)cc1 [MC-190066] | 16 (≈ 36 µM) | < 50 µM | 250 µM |  |  |  |  | 0.75 | 
9 | CC(C)c1ccc(OCC(=O)NNC(=S)NC(=O)c2cc3cc(Cl)ccc3[nH]2)cc1 [MC-190064] | 256 (≈ 575 µM) | 100 µM |  |  |  |  |  | 0.53 | > 500
10 | CC(C)c1ccc(OCC(=O)NNC(=S)NC(=O)c2cccnc2)cc1 [MC-190049] | 64 (≈ 172 µM) | 160 µM |  |  |  |  |  | 1 | > 500
11 | COc1ccc2[nH]c(C(=O)NC(=S)NNC(=O)COc3ccc(C(C)C)cc3)cc2c1 [MC-190060] | 32 (≈ 72.6 µM) | < 50 µM | 50 µM |  |  |  |  | 0.49 | 
12 | CC(C)c1ccc(OCC(=O)NNC(=S)NC(=O)/C=C/c2ccco2)cc1 [MC-190045] | 64 (≈ 165 µM) | 32 µM | 100 µM |  |  |  |  | 0.625 | 

More lines, main results first:

Row | MIC [1, 4] [µg/mL] | IC50 [2] | IC50 (RnpA; [5]) | Compound | MIC ([1]; 18 hours, listed as MC-220000) [µg/mL] | precursor tRNA processing in vitro ([2]; FIG. 1, Panel A) | antimicrobial properties in petroleum jelly (Staphylococcus aureus) | precursor tRNA processing within bacterial cells [3] | FIC with Mupirocin (S. aureus strain UAMS-1) | IC50 (RnpA) [µM]
13 | 8 (≈ 23.9 µM) | > 500 µM | > 500 µM | CC(C)c1ccc(OCC(=O)NNC(=S)NC(=O)C2CC2)cc1 [ST5523314] |  |  |  |  | 1 | 
14 | 256 (≈ 704 µM) | > 500 µM | > 500 µM | CCOc1ccc(OCC(=O)NNC(=S)NC(=O)c2ccco2)cc1 [MC-190071] |  |  |  |  | 0.375 | 
15 | 16 (≈ 35.8 µM) | 220 µM | 35 µM | Cc1cc(OCC(=O)NNC(=S)NC(=O)c2ccc(Br)o2)ccc1Cl [ST5522821] |  |  |  |  | 0.75 | 
16 | 32 (≈ 77.8 µM) | 1 µM | 60 µM | CC(C)c1ccc(OCC(=O)NNC(=S)NC(=O)c2cc3ccccc3o2)cc1 [MC-190031] |  |  |  |  | 0.25 | 
17 | 32 (≈ 79.3 µM) | 110 µM | 45 µM | CC(C)c1ccccc1OCC(=O)NNC(=S)NC(=O)/C=C/c1cccs1 [ST5523210] |  |  |  |  | 0.75 | 
18 | 4 (≈ 11.5 µM) | 95 µM | 430 µM | CCCOc1ccccc1C(=O)NNC(=S)NC(=O)c1ccco1 [ST5528488] |  |  |  |  | 0.5 | 
19 | 128 (≈ 319 µM) | > 500 µM | 250 µM | COc1ccccc1C(=O)NC(=S)NNC(=O)COc1ccc(C(C)C)cc1 [MC-190033] |  |  |  |  | 0.3125 | 
20 | > 128 | > 500 µM | > 500 µM | CC(Oc1ccc2ccccc2c1)C(=O)NNC(=S)NC(=O)c1ccco1 (stereo not drawn) [ST5682782] |  |  |  |  | 0.25 | 
21 | 64 (≈ 146 µM) | 26 µM | 30 µM | CC(C)c1ccc(OCC(=O)NNC(=S)NC(=O)/C=C/c2cc3ccccc3o2)cc1 [MC-190047] |  |  |  |  | 0.625 | 
22 | 128 (≈ 295 µM) | 100 µM | > 500 µM | Cc1cccc(C)c1OCC(=O)NNC(=S)NC(=O)c1ccc(-c2ccccc2)cc1 [ST5523335] |  |  |  |  | 0.375 | 
23 | 32 (≈ 97.2 µM) | 370 µM | > 500 µM | O=C(NC(=S)NNC(=O)C1C[C@H]1c1ccccc1)c1ccco1 (stereo partly drawn) [MC-190068] |  |  |  |  | 0.5 | 
24 | > 128 | > 500 µM | 40 µM | Cc1ccc(C(C)C)c(OCC(=O)NNC(=S)NC(=O)c2ccccc2OCCOc2ccccc2)c1 [ST5528960] |  |  |  |  | 0.56 | 
25 | 128 (≈ 339 µM) | 380 µM | > 500 µM | CC(C)c1ccc(OCC(=O)NNC(=S)NC(=O)c2cccs2)cc1 [MC-190029] |  |  |  |  | 0.5 | 
26 | 8 to 16 (≈ 24 to 48 µM) | > 500 µM | > 500 µM | CCOc1ccccc1C(=O)NNC(=S)NC(=O)c1ccco1 [MC-190067] |  |  |  |  | 0.625 | 
